These compounds were tested against human PDGFRβ (Homo sapiens (Human), UniProt P09619) (assay: PDGFRβ kinase assay (PDGFRβ-HTRF)). Conditions: 10 μM ATP; some mean values from multiple determinations.
Format: biochemical
Procedure: The PDGFRβ-inhibitory activity of the inventive compounds was determined in the PDGFRβ-HTRF assay described hereinafter.
The kinase used was a recombinant fusion protein composed of N-terminal GST and a C-terminal fragment of human PDGFRβ (amino acids R561-L1106), expressed in baculovirus-infected insect cells (Sf9) and purified by affinity chromatography (from ProQinase GmbH, Freiburg, Germany). The substrate used for the kinase reaction was biotinylated poly-Glu,Tyr (4:1) copolymer (from Cisbio Bioassays, Codolet, France).
For the assay, 50 nl of a 100-fold concentrated solution of the test substance in DMSO was pipetted into a black “low-volume 384 well” microtitre plate (from Greiner Bio-One, Frickenhausen, Germany), then 2 μl of a solution of PDGFRβ in assay buffer [50 mM HEPES/NaOH pH 7.5, 10 mM MgCl2, 2.5 mM dithiothreitol, 0.01% (v/v) Triton-X100 (from Sigma)] was added and the mixture was incubated for 15 min, in order to enable preliminary binding of the substance to the enzyme before the kinase reaction. […] The resulting mixture was incubated at 22° C. for 1 h to allow formation of a complex of the biotinylated phosphorylated substrate and the detection reagents.
Subsequently, the amount of the phosphorylated substrate was evaluated by measuring the resonance energy transfer from the PT66-Eu chelate to the streptavidin-XL665. […] The IC50 values were calculated by a 4-parameter fit.

human PDGFRβ, sequence (P09619 561-1106): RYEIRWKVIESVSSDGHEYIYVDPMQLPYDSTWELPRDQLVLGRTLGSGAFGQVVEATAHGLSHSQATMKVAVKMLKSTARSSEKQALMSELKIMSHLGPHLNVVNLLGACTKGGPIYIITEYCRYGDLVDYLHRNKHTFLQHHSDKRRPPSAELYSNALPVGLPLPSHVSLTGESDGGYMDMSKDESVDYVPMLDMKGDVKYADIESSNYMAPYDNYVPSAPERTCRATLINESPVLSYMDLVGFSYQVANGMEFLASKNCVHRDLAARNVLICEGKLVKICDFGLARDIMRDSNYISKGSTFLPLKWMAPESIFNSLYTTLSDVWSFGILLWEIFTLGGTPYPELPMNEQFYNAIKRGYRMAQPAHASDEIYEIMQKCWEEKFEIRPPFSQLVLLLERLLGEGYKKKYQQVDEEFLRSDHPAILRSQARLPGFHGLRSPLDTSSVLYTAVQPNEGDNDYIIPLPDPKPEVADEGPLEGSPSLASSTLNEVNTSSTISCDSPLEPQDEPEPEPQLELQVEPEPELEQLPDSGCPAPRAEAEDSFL

Point of comparison: `Cc1cc(F)c(Nc2ccnc3c2C(=O)Nc2cc(C(=O)N4CCCC(O)C4)ccc2N3)cc1O` (racemic) [Example 82, rac-4-[(2-Fluoro-5-hydroxy-4-methylphenyl)amino]-8-[(3-hydroxypiperidin-1-yl)carbonyl]-6, 11-dihydro-5H-pyrido[2,3-b][1,5]benzodiazepin-5-one], IC50 10.1 nM. Against it:
- Cc1cc(F)c(Nc2ccnc3c2C(=O)Nc2cc(CN4CCCC(C(N)=O)C4)ccc2N3)cc1O (racemic) [Example 57, rac-1-({4-[(2-Fluoro-5-hydroxy-4-methylphenyl)amino]-5-oxo-6,11-dihydro-5H-pyrido[2,3-b][1,5]benzodiazepin-8-yl}methyl)piperidine-3-carboxamide] — 6.1-fold lower, 1.66 nM
- Cc1cc(F)c(Nc2ccnc3c2C(=O)Nc2cc(CN4CCCC(O)CC4)ccc2N3)cc1O (racemic) [Example 62, rac-4-[(2-Fluoro-5-hydroxy-4-methylphenyl)amino]-8-[(4-hydroxyazepan-1-yl)methyl]-6,11-dihydro-5H-pyrido[2,3-b][1,5]benzodiazepin-5-one] — 7.3-fold lower, 1.39 nM
- COC1CCCN(Cc2ccc3c(c2)NC(=O)c2c(Nc4cc(O)c(C)cc4F)ccnc2N3)C1 (racemic) [Example 66, rac-4-[(2-Fluoro-5-hydroxy-4-methylphenyl)amino]-8-[(3-methoxypiperidin-1-yl)methyl]-6,11-dihydro-5H-pyrido[2,3-b][1,5]benzodiazepin-5-one] — 2.7-fold lower, 3.75 nM
- CCOC1CCCN(Cc2ccc3c(c2)NC(=O)c2c(Nc4cc(O)c(C)cc4F)ccnc2N3)C1 (racemic) [Example 67, rac-8-[(3-Ethoxypiperidin-1-yl)methyl]-4-[(2-fluoro-5-hydroxy-4-methylphenyl)amino]-6,11-dihydro-5H-pyrido[2,3-b][1,5]benzodiazepin-5-one] — 4.5-fold lower, 2.23 nM
- CCCOC1CCCN(Cc2ccc3c(c2)NC(=O)c2c(Nc4cc(O)c(C)cc4F)ccnc2N3)C1 (racemic) [Example 68, rac-4-[(2-Fluoro-5-hydroxy-4-methylphenyl)amino]-8-[(3-propoxypiperidin-1-yl)methyl]-6,11-dihydro-5H-pyrido[2,3-b][1,5]benzodiazepin-5-one] — 5.5-fold lower, 1.85 nM
- Cc1cc(F)c(Nc2ccnc3c2C(=O)Nc2cc(CN4CCCC(O)(c5ccccc5)C4)ccc2N3)cc1O (racemic) [Example 73, rac-4-[(2-Fluoro-5-hydroxy-4-methylphenyl)amino]-8-[(3-hydroxy-3-phenylpiperidin-1-yl)methyl]-6,11-dihydro-5H-pyrido[2,3-b][1,5]benzodiazepin-5-one] — 5.1-fold lower, 1.98 nM
- Cc1cc(F)c(Nc2ccnc3c2C(=O)Nc2cc(CNC(C)C4CCCCC4)ccc2N3)cc1O (racemic) [Example 77, rac-8-{[(1-Cyclohexylethyl)amino]methyl}-4-[(2-fluoro-5-hydroxy-4-methylphenyl)amino]-6,11-dihydro-5H-pyrido[2,3-b][1,5]benzodiazepin-5-one] — 2.1-fold lower, 4.9 nM
- Cc1cc(F)c(Nc2ccnc3c2C(=O)Nc2cc(CN4CCCC(OCC(F)(F)F)C4)ccc2N3)cc1O (racemic) [Example 89, rac-4-[(2-Fluoro-5-hydroxy-4-methylphenyl)amino]-8-{[3-(2,2,2-trifluoroethoxy)piperidin-1-yl]methyl}-6,11-dihydro-5H-pyrido[2,3-b][1,5]benzodiazepin-5-one] — 2.9-fold lower, 3.51 nM
- Cc1cc(F)c(Nc2ccnc3c2C(=O)Nc2cc(CN4CCC(O)C(C)(C)C4)ccc2N3)cc1O (racemic) [Example 166, rac-4-[(2-Fluoro-5-hydroxy-4-methylphenyl)amino]-8-[(4-hydroxy-3,3-dimethylpiperidin-1-yl)methyl]-6,11-dihydro-5H-pyrido[2,3-b][1,5]benzodiazepin-5-one] — 2-fold lower, 5.02 nM
- Cc1cc(F)c(Nc2ccnc3c2C(=O)Nc2cc(CN4CCC(CO)C4)ccc2N3)cc1O (racemic) [Example 177, rac-4-[(2-Fluoro-5-hydroxy-4-methylphenyl)amino]-8-{[3-(hydroxymethyl)pyrrolidin-1-yl]methyl}-6,11-dihydro-5H-pyrido[2,3-b][1,5]benzodiazepin-5-one] — 5.9-fold lower, 1.71 nM
- Cc1cc(F)c(Nc2ccnc3c2C(=O)Nc2cc(C(=O)N4CCCC(CCO)C4)ccc2N3)cc1O (racemic) [Example 179, rac-4-[(2-Fluoro-5-hydroxy-4-methylphenyl)amino]-8-{[3-(2-hydroxyethyl)piperidin-1-yl]carbonyl}-6,11-dihydro-5H-pyrido[2,3-b][1,5]benzodiazepin-5-one] — within 1.5-fold, 14.6 nM
- Cc1cc(F)c(Nc2ccnc3c2C(=O)Nc2cc(C(=O)N4CCC(CCO)C4)ccc2N3)cc1O (racemic) [Example 181, rac-4-[(2-Fluoro-5-hydroxy-4-methylphenyl)amino]-8-{[3-(2-hydroxyethyl)pyrrolidin-1-yl]carbonyl}-6,11-dihydro-5H-pyrido[2,3-b][1,5]benzodiazepin-5-one] — within 1.5-fold, 8.91 nM
- Cc1cc(F)c(Nc2ccnc3c2C(=O)Nc2cc(CN4CCN5C(=O)C(C)NC(=O)C5C4)ccc2N3)cc1O (racemic) [Example 194, rac-8-({4-[(2-Fluoro-5-hydroxy-4-methylphenyl)amino]-5-oxo-6,11-dihydro-5H-pyrido[2,3-b][1,5]benzodiazepin-8-yl}methyl)-3-methyltetrahydro-2H-pyrazino[1,2-a]pyrazine-1,4(3H,6H)-dione] — 5.3-fold lower, 1.92 nM
- CCN(Cc1ccc2c(c1)NC(=O)c1c(Nc3cc(O)c(C)cc3F)ccnc1N2)CC(C)O (racemic) [Example 204, rac-8-{[Ethyl(2-hydroxypropyl)amino]methyl}-4-[(2-fluoro-5-hydroxy-4-methylphenyl)amino]-6,11-dihydro-5H-pyrido[2,3-b][1,5]benzodiazepin-5-one] — 5.9-fold lower, 1.71 nM
- CCN(Cc1ccc2c(c1)NC(=O)c1c(Nc3cc(O)c(C)cc3F)ccnc1N2)CC(C)O (single isomer, unassigned; ent-8) [Example 205, ent-8-{[Ethyl(2-hydroxypropyl)amino]methyl}-4-[(2-fluoro-5-hydroxy-4-methylphenyl)amino]-6,11-dihydro-5H-pyrido[2,3-b][1,5]benzodiazepin-5-one (Enantiomer 1)] — 5.7-fold lower, 1.76 nM
- CCN(Cc1ccc2c(c1)NC(=O)c1c(Nc3cc(O)c(C)cc3F)ccnc1N2)CC(C)O (single isomer, unassigned; ent-8) [Example 206, ent-8-{[Ethyl(2-hydroxypropyl)amino]methyl}-4-[(2-fluoro-5-hydroxy-4-methylphenyl)amino]-6,11-dihydro-5H-pyrido[2,3-b][1,5]benzodiazepin-5-one (Enantiomer 2)] — 6.5-fold lower, 1.55 nM
- Cc1ccc(O)cc1Nc1ccnc2c1C(=O)Nc1cc(C#N)ccc1N2 [Example 1, 4-[(5-Hydroxy-2-methylphenyl)amino]-5-oxo-6,11-dihydro-5H-pyrido[2,3-b][1,5]benzodiazepine-8-carbonitrile] — 1.9-fold lower, 5.43 nM
- CCCc1ccc(Nc2ccnc3c2C(=O)Nc2cc(C#N)ccc2N3)cc1O [Example 2, 4-[(3-Hydroxy-4-propylphenyl)amino]-5-oxo-6,11-dihydro-5H-pyrido[2,3-b][1,5]benzodiazepine-8-carbonitrile] — 85-fold higher, 862 nM
- Cc1ccc(Nc2ccnc3c2C(=O)Nc2cc(C#N)ccc2N3)cc1O [Example 3, 4-[(3-Hydroxy-4-methylphenyl)amino]-5-oxo-6,11-dihydro-5H-pyrido[2,3-b][1,5]benzodiazepine-8-carbonitrile] — 2.6-fold lower, 3.82 nM

Source: patent US10047096B2, “Substituted pyridobenzodiazepinone-derivatives and use thereof” (Bayer Pharma Aktiengesellschaft, priority 2014, dated 2018)
